Laboratory results reported in patent US20260091050A1, “ADVANTAGEOUS ANTI-HCV COMBINATION THERAPY” (Atea Pharmaceuticals, Inc., priority 2021, published 2026).

What was measured:
[1] = Stability under refrigerator conditions (5 ± 3° C.) of Compound 1-A over 9 months; assay type: physicochemical
Procedure: Three conditions were tested: accelerated stability (40±2° C./[…]) over a 6-month time period, ambient stability (25±2° C./[…]) over a 9-month period, and stability under refrigerator conditions (5±3° C.) over a 9-month time period. The results for accelerated stability, ambient stability, and refrigerator conditions are shown in Table 23, Table 24, and Table 25, respectively.

[2] = Plasma levels of Compound 1 and metabolites after single oral dose of Compound 1-A, rat; assay type: in vivo; conditions: 500 mg/kg single oral dose
[3] = Heart and liver tissue levels of active triphosphate 4 hours after oral Compound 1-A, dog; assay type: in vivo; conditions: 4 hours after single oral dose
Procedure: High levels of the active TP were measured in the liver of all species tested.

CNc1nc(N)nc2c1ncn2[C@@H]1O[C@H](CO[P@@](=O)(N[C@@H](C)C(=O)OC(C)C)Oc2ccccc2)[C@@H](O)[C@@]1(C)F [Compound 1-A, isopropyl ((S)-(((2R,3R,4R,5R)-5-(2-amino-6-(methylamino)-9H-purin-9-yl)-4-fluoro-3-hydroxy-4-methyltetrahydrofuran-2-yl)methoxy) (phenoxy)phosphoryl)-L-alaninate hemisulfate]
Appearance ([1]; 5 ± 3° C., 0 month): White
Assay ([1]; 5 ± 3° C., 0 month): 98.8%
IR ([1]; 5 ± 3° C., 0 month): correspond
Related Substance 1 Any other single impurity ([1]; 5 ± 3° C., 0 month): 0.01%
Related Substance 1 Total Impurities ([1]; 5 ± 3° C., 0 month): 0.01%
Water ([1]; 5 ± 3° C., 0 month): 0.45%
Appearance ([1]; 5 ± 3° C., 1st month): White
Assay ([1]; 5 ± 3° C., 1st month): 101.1%
Related Substance 1 Any other single impurity ([1]; 5 ± 3° C., 1st month): 0.01%
Related Substance 1 Total Impurities ([1]; 5 ± 3° C., 1st month): 0.01%
Water ([1]; 5 ± 3° C., 1st month): 0.19%
Appearance ([1]; 5 ± 3° C., 3rd month): White
Assay ([1]; 5 ± 3° C., 3rd month): 100.2%
IR ([1]; 5 ± 3° C., 3rd month): correspond
Related Substance 1 Any other single impurity ([1]; 5 ± 3° C., 3rd month): 0.01%
Related Substance 1 Impurity B ([1]; 5 ± 3° C., 3rd month): 0.01%
Related Substance 1 Total Impurities ([1]; 5 ± 3° C., 3rd month): 0.03%
Water ([1]; 5 ± 3° C., 3rd month): 0.32%
Appearance ([1]; 5 ± 3° C., 6th month): White
Assay ([1]; 5 ± 3° C., 6th month): 98.6%
IR ([1]; 5 ± 3° C., 6th month): correspond
Related Substance 1 Any other single impurity ([1]; 5 ± 3° C., 6th month): 0.01%
Related Substance 1 Total Impurities ([1]; 5 ± 3° C., 6th month): 0.03%
Water ([1]; 5 ± 3° C., 6th month): 0.42%
Appearance ([1]; 5 ± 3° C., 9th month): Off-white
Assay ([1]; 5 ± 3° C., 9th month): 101.4%
IR ([1]; 5 ± 3° C., 9th month): correspond
Related Substance 1 Any other single impurity ([1]; 5 ± 3° C., 9th month): 0.01%
Related Substance 1 Total Impurities ([1]; 5 ± 3° C., 9th month): 0.01%
Water ([1]; 5 ± 3° C., 9th month): 0.32%
total impurities of related substance 1 ([1]; after 9 months): 0.0100
water content ([1]; after 9 months): 0.3200
Chemical stability (conclusion) ([1]; refrigerator conditions): very chemically stable
Compound 1 AUC0-last [2]: 60.9 ng·h/mL
Compound 1 Cmax [2]: 70.5 ng/mL
Compound 1 Tmax [2]: 15 min
active TP (metabolite 1-6) level in heart [3]: Relatively low levels
active TP (metabolite 1-6) level in liver [3]: High levels
